The text below walks through data of ChEMBL document CHEMBL1201862, “PubChem BioAssay data set” (2004).

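Test compounds were applied to cells in 96-well plates for 48 hours at 5 doses. GI50 = concentration required for 50% inhibition of growth.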 The source made the active and inactive calls. Rule as the data show it: active = GI50 up to about 1.1 µM and inactive = higher.

Among the test systems are M14; A549; DLD-1; SR; SF-268; ACHN; RXF 393; IGROV-1; HL-60; HT-29; NCI-H522; OVCAR-5; DMS-273; NCI-H460; SK-MEL-28; MDA-MB-435; MDA-MB-231; T47D; BT-549.
Holding throughout (test): growth of human tumour cells (NCI), 48 h

For `CC(C)OCN1COCN/C1=N/C#N`, the GI50 is > 100 µM (inactive) with M14; > 100 µM (inactive) in the test on A549; 26.4 µM (inactive) in the test on DLD-1; > 100 µM (inactive) in the test with SR; > 100 µM (inactive) in the test with SF-268; > 100 µM (inactive) in the test with ACHN. For the same compound, the GI50 in the test on RXF 393 is > 100 µM (inactive); in the test on IGROV-1, > 100 µM (inactive); with HL-60, > 100 µM (inactive); in the test on HT-29 it was 78.3 µM (inactive); with NCI-H522, > 100 µM (inactive); in the test with OVCAR-5, > 100 µM (inactive). Moreover, the GI50 in the test on DMS-273 is 37.5 µM (inactive); in the test with NCI-H460, > 100 µM (inactive); in the test with SK-MEL-28, > 100 µM (inactive).
Consider `O=C(CSc1nc2ccccc2c(=O)n1-c1ccccc1)N/N=C1\C(=O)Nc2ccc(Br)cc21`, for which the GI50 was 2.4 µM (inactive) in the test on M14; 5.71 µM (inactive) with MDA-MB-435; 1.65 µM (inactive) in the test with MDA-MB-231; 2.3 µM (inactive) in the test with A549; 15.6 µM (inactive) with SR; 5.48 µM (inactive) in the test on SF-268. In addition, the GI50 was 4.57 µM (inactive) with ACHN; 2.62 µM (inactive) with RXF 393; 2.14 µM (inactive) with IGROV-1; 3.21 µM (inactive) in the test with HL-60; 4.92 µM (inactive) with T47D; 10.3 µM (inactive) with BT-549. Moreover, the GI50 in the test on HT-29 is 1.69 µM (inactive); in the test on NCI-H522, 3.4 µM (inactive); with OVCAR-5, 2.92 µM (inactive); in the test on NCI-H460 it was 4.92 µM (inactive); with SK-MEL-28, 3.35 µM (inactive).
Consider `COc1ccc(C(=O)c2ccc(-n3c4ccccc4c4ccc5c(c43)C(=O)C=CC5=O)cc2)cc1`, for which the GI50 with M14 was 2.53 µM (inactive); in the test on MDA-MB-435 it was 1.39 µM (inactive); in the test with MDA-MB-231, 1.94 µM (inactive); with A549 it was 3.17 µM (inactive); in the test with SR, 1.32 µM (inactive); in the test on SF-268 it was 0.647 µM (active). The GI50 in the test with ACHN was 0.8 µM (active); in the test on RXF 393, 0.845 µM (active); in the test on IGROV-1, 2.61 µM (inactive); in the test on HL-60, 0.495 µM (active); with T47D it was 1.06 µM (active); with BT-549, 3.21 µM (inactive). Also, the GI50 in the test with HT-29 was 1.06 µM (active); with NCI-H522, 0.217 µM (active); in the test on OVCAR-5, 19.5 µM (inactive); in the test with NCI-H460, 4.61 µM (inactive); with SK-MEL-28 it was 2.99 µM (inactive).
For the compound `C/C=C/[C@@H]1O[C@H](CC#C[Si](C)(C)C)[C@@]2(C=O)C(C)=CC[C@H](C(C)C)[C@@H]12`, the GI50 is 18.5 µM (inactive) with M14; 20 µM (inactive) with MDA-MB-435; 17.3 µM (inactive) in the test on MDA-MB-231; 23.1 µM (inactive) with A549; 2.44 µM (inactive) in the test on SR; 23.8 µM (inactive) in the test on SF-268. For the same compound, the GI50 in the test with ACHN was 19.2 µM (inactive); in the test on RXF 393, 18 µM (inactive); with IGROV-1, 2.82 µM (inactive); in the test on HL-60, 3.81 µM (inactive); with T47D it was 30.8 µM (inactive); in the test with BT-549, 22.4 µM (inactive). For the same compound, the GI50 in the test on HT-29 was 19.5 µM (inactive); with NCI-H522 it was 2.09 µM (inactive); in the test with OVCAR-5, 21 µM (inactive); with NCI-H460, 17.1 µM (inactive); with SK-MEL-28, 20.3 µM (inactive).
For `Cc1cccc(CP(Cc2cccc(C)c2)CC2(Cp3c4ccccc4c4ccccc43)COC2)c1`, the GI50 in the test on M14 was 3.97 µM (inactive); in the test with MDA-MB-435 it was 5.71 µM (inactive); in the test on MDA-MB-231, 1.3 µM (inactive); in the test on A549, 0.206 µM (active); in the test on SR, 1.15 µM (inactive); in the test with SF-268, 3.79 µM (inactive). Also, the GI50 is 4.71 µM (inactive) with ACHN; > 20.3 µM (inactive) with RXF 393; 2.3 µM (inactive) in the test with IGROV-1; 0.332 µM (active) with HL-60; 1.73 µM (inactive) in the test with T47D; 3.96 µM (inactive) in the test on BT-549. The GI50 with HT-29 is 0.485 µM (active); with NCI-H522, 1.18 µM (inactive); in the test with OVCAR-5 it was > 100 µM (inactive); in the test on NCI-H460, 1.63 µM (inactive); with SK-MEL-28 it was 13 µM (inactive).
For `Cc1ccc(NC(=O)c2cccc(OP(=O)(O)Nc3ccc(C)cc3)c2)cc1`, the GI50 with M14 is 33.3 µM (inactive); with MDA-MB-435, > 100 µM (inactive); with MDA-MB-231, 74.1 µM (inactive); in the test with A549, 71.8 µM (inactive); in the test with SR, 32.4 µM (inactive); with SF-268 it was > 100 µM (inactive). Further, the GI50 with ACHN was 57.4 µM (inactive); in the test on RXF 393, > 100 µM (inactive); in the test on IGROV-1, > 100 µM (inactive); with HL-60, > 100 µM (inactive); in the test on T47D, 79.3 µM (inactive); with BT-549 it was > 100 µM (inactive). Also, the GI50 in the test with HT-29 is > 100 µM (inactive); in the test with NCI-H522, 18.7 µM (inactive); in the test on OVCAR-5, > 100 µM (inactive); with NCI-H460 it was > 100 µM (inactive); with SK-MEL-28, > 100 µM (inactive).
`Nc1nc(S)nc(C(=O)Nc2ccc(Cl)c(Cl)c2)c1-c1ccc(Cl)cc1`: the GI50 was 87.1 µM (inactive) in the test on M14; > 100 µM (inactive) in the test with A549; > 100 µM (inactive) with DLD-1; 76.6 µM (inactive) in the test with SR; > 100 µM (inactive) with SF-268; > 100 µM (inactive) with ACHN. In addition, the GI50 was > 100 µM (inactive) in the test with RXF 393; > 100 µM (inactive) with IGROV-1; > 100 µM (inactive) in the test on HL-60; 71.4 µM (inactive) in the test on HT-29; > 100 µM (inactive) in the test with NCI-H522; > 100 µM (inactive) in the test with OVCAR-5. Also, the GI50 in the test on NCI-H460 and in the test on SK-MEL-28 was > 100 µM (inactive) each time.
Take `Cc1cccc2c(NCCCN(C)C)c3c([N+](=O)[O-])ccc(C)c3nc12`: the GI50 with M14 was 0.132 µM (active); in the test with MDA-MB-435, 0.191 µM (active); in the test on MDA-MB-231, 0.217 µM (active); in the test on A549 it was 0.101 µM (active); with SR, < 0.0154 µM (active); in the test on SF-268, 0.198 µM (active). The GI50 was 0.0908 µM (active) with ACHN; 0.0647 µM (active) in the test on RXF 393; 0.0574 µM (active) with IGROV-1; 0.203 µM (active) in the test with HL-60; 0.0879 µM (active) in the test with T47D; 0.256 µM (active) with BT-549. Besides, the GI50 in the test with HT-29 is 0.0809 µM (active); in the test with NCI-H522, < 0.0326 µM (active); in the test with OVCAR-5, 0.264 µM (active); in the test with NCI-H460, < 0.0241 µM (active); with SK-MEL-28 it was 2.32 µM (inactive).
Turning to `O=C(/C=C/c1ccc(Oc2cc(C(=O)/C=C/c3ccc(O)cc3)c(O)cc2O)cc1)c1ccc(O)cc1O` [RHUSCHALCONE II], the GI50 in the test on M14 was 10.3 µM (inactive); in the test with MDA-MB-435, 4.15 µM (inactive); with MDA-MB-231 it was 5.08 µM (inactive); in the test with A549 it was 15.5 µM (inactive); with SR, 3.35 µM (inactive); in the test on SF-268 it was 4.83 µM (inactive). Moreover, the GI50 was 9.29 µM (inactive) with ACHN; 4.97 µM (inactive) in the test with RXF 393; 3.38 µM (inactive) with IGROV-1; 4.14 µM (inactive) in the test on HL-60; 5.93 µM (inactive) in the test with T47D; 9.84 µM (inactive) with BT-549. Besides, the GI50 with HT-29 was 1.92 µM (inactive); with NCI-H522, 4.82 µM (inactive); in the test with OVCAR-5, 5.27 µM (inactive); in the test on NCI-H460, 7.89 µM (inactive); with SK-MEL-28, 2.52 µM (inactive).
Turning to `O=C(CN1CCN(C(=O)OCc2ccccc2)CCN(CC(=O)N2CCCCC2)CCN(C(=O)OCc2ccccc2)CC1)N1CCCCC1`, the GI50 was 10.1 µM (inactive) in the test on M14; 16.1 µM (inactive) in the test on MDA-MB-435; 14.2 µM (inactive) in the test with MDA-MB-231; 20.8 µM (inactive) with A549; 3.3 µM (inactive) in the test on SR; 15.8 µM (inactive) with SF-268. The GI50 in the test on ACHN is 18.1 µM (inactive); in the test with RXF 393, 11.9 µM (inactive); in the test on IGROV-1, 10.3 µM (inactive); in the test with HL-60, 10.6 µM (inactive); in the test with T47D it was 17 µM (inactive); with BT-549, 23.1 µM (inactive). In addition, the GI50 in the test with HT-29 is 7.46 µM (inactive); in the test on NCI-H522, 5.52 µM (inactive); in the test on OVCAR-5, 19.6 µM (inactive); in the test on NCI-H460, 12.4 µM (inactive); in the test on SK-MEL-28, 14.7 µM (inactive).
`Nc1nc(SCc2ccccn2)c2ncn(C3CCCC3)c2n1`: the GI50 with M14 was > 100 µM (inactive); in the test on MDA-MB-435, > 100 µM (inactive); in the test with MDA-MB-231, > 100 µM (inactive); in the test on A549 it was > 100 µM (inactive); with SR, > 100 µM (inactive); in the test with SF-268, 70.5 µM (inactive). Moreover, the GI50 in the test on ACHN is > 100 µM (inactive); in the test on RXF 393 it was > 100 µM (inactive); with IGROV-1, > 100 µM (inactive); in the test with HL-60, 97.3 µM (inactive); in the test on T47D, 76 µM (inactive); in the test on BT-549, > 100 µM (inactive). Also, the GI50 in the test with HT-29 was > 100 µM (inactive); with NCI-H522 it was 59.7 µM (inactive); in the test on OVCAR-5, > 100 µM (inactive); in the test on NCI-H460, > 100 µM (inactive); with SK-MEL-28 it was > 100 µM (inactive).
As to `CCC(NC(C)c1ccccc1)C(=O)c1ccc(OCc2ccccc2)c(OCc2ccccc2)c1` (centres undefined), the GI50 with M14, in the test on MDA-MB-435, in the test with MDA-MB-231, in the test on A549, in the test with SR and in the test with SF-268 was > 100 µM (inactive) throughout. For the same compound, the GI50 with ACHN, in the test on RXF 393, in the test on IGROV-1, in the test on HL-60, in the test with T47D and in the test with BT-549 was > 100 µM (inactive) each time. The GI50 in the test on HT-29, in the test on NCI-H522, in the test with OVCAR-5, in the test with NCI-H460 and in the test on SK-MEL-28 was > 100 µM (inactive) each time.
